In paper PMC10526447 (Biomolecules, 2023):
Like-named read-outs stand apart in the source and are kept apart here. Positions of bridges follow the written chain, without caps; N, C: chain ends. No end group written: not given here.

How the values were obtained:
[1] = tested on: Pseudotyped SARS-CoV-2 BA.1; settings: Pseudotyped BA.1, 48 h
[2] = tested on: Pseudotyped SARS-CoV-2 BA.2; settings: Pseudotyped BA.2, 48 h
[3] = tested on: Pseudotyped SARS-CoV-2 BA.2.12.1; settings: Pseudotyped BA.2.12.1, 48 h
[4] = tested on: Pseudotyped SARS-CoV-2 BA.2.75; settings: Pseudotyped BA.2.75, 48 h
[5] = tested on: Pseudotyped SARS-CoV-2 BA.5; settings: Pseudotyped BA.5, 48 h
[6] = tested on: Pseudotyped SARS-CoV-2 BF.7; settings: Pseudotyped BF.7, 48 h
[7] = tested on: Pseudotyped SARS-CoV-2 BA.4.6; settings: Pseudotyped BA.4.6, 48 h
[8] = tested on: Pseudotyped SARS-CoV-2 XBB; settings: 48 h
[9] = tested on: Pseudotyped SARS-CoV-2 BQ.1.1; settings: Pseudotyped BQ.1.1, 48 h
[10] = tested on: live SARS-CoV-2 Delta variant (B.1.617.2); settings: live Delta variant (B.1.617.2, 2 h)
[11] = tested on: Pseudotyped SARS-CoV-2 N501Y; settings: 48 h
[12] = tested on: Pseudotyped SARS-CoV-2 B.1.1.7 (Alpha); settings: Pseudotyped B.1.1.7 (Alpha, 48 h)
[13] = tested on: Pseudotyped SARS-CoV-2 B.1.351 (Beta); settings: Pseudotyped B.1.351 (Beta, 48 h)
[14] = tested on: Pseudotyped SARS-CoV-2 P.1 (Gamma); settings: Pseudotyped P.1 (Gamma, 48 h)
[15] = tested on: Pseudotyped SARS-CoV-2 B.1.617.2 (Delta); settings: Pseudotyped B.1.617.2 (Delta, 48 h)
[16] = tested on: Pseudotyped SARS-CoV-2 C.37; settings: Pseudotyped C.37, 48 h
[17] = tested on: Pseudotyped SARS-CoV-2 N501Y; settings: 48 h; remark: listed apart in the source
[18] = tested on: Pseudotyped SARS-CoV-2 B.1.1.7 (Alpha); settings: Pseudotyped B.1.1.7 (Alpha, 48 h); remark: listed apart in the source
[19] = tested on: Pseudotyped SARS-CoV-2 B.1.351 (Beta); settings: Pseudotyped B.1.351 (Beta, 48 h); remark: listed apart in the source
[20] = tested on: Pseudotyped SARS-CoV-2 P.1 (Gamma); settings: Pseudotyped P.1 (Gamma, 48 h); remark: listed apart in the source
[21] = tested on: Pseudotyped SARS-CoV-2 B.1.617.2 (Delta); settings: Pseudotyped B.1.617.2 (Delta, 48 h); remark: listed apart in the source
[22] = tested on: Pseudotyped SARS-CoV-2 C.37; settings: Pseudotyped C.37, 48 h; remark: listed apart in the source

Row | Compound | IC50 [1] | IC50 [2] | IC50 [3] | IC50 [4] | IC50 [5] | IC50 [6] | IC50 [7] | IC50 [8] | IC50 [9] | IC50 [10] | other results
1 | CC[C@H](C)[C@H](NC(=O)[C@H](C)NC(=O)[C@H](CCC(=O)O)NC(=O)[C@H](CCC(=O)O)NC(=O)[C@H](CC(C)C)NC(=O)[C@H](CCCCN)NC(=O)[C@H](CCCCN)NC(=O)[C@H](CCSC)NC(=O)[C@H](CCC(=O)O)NC(=O)[C@H](Cc1ccc(O)cc1)NC(=O)[C@H](CCC(=O)O)NC(=O)[C@H](CC(C)C)NC(=O)[C@H](CC(=O)O)NC(=O)[C@H](CC(C)C)NC(=O)[C@H](Cc1ccccc1)NC(=O)[C@@H](NC(=O)[C@@H](NC(=O)[C@H](CC(N)=O)NC(=O)[C@@H](NC(=O)[C@H](CCC(N)=O)NC(=O)[C@H](CC(=O)O)NC(=O)[C@H](CC(C)C)NC(=O)[C@@H](N)CO)[C@@H](C)CC)C(C)C)[C@@H](C)O)C(=O)N[C@@H](CCCCN)C(=O)N[C@@H](CCCCN)C(=O)N[C@@H](CC(C)C)C(=O)N[C@@H](CCC(=O)O)C(=O)N[C@@H](CCC(=O)O)C(=O)N[C@@H](CO)C(=O)N[C@@H](Cc1ccc(O)cc1)C(=O)N[C@H](C(=O)N[C@@H](CC(=O)O)C(=O)N[C@@H](CC(C)C)C(=O)N[C@@H](CCCCN)C(=O)N[C@@H](CCC(=O)O)C(=O)N[C@@H](CC(C)C)C(=O)O)[C@@H](C)CC [EK1] | 334 nM | 544 nM | 592 nM | 248 nM | 690 nM | 260 nM | 201 nM | 366 nM | 378 nM | 296 nM | –
2 | CC(C)C[C@@H]1NC(=O)[C@H](Cc2c[nH]cn2)NC(=O)[C@H](Cc2c[nH]c3ccccc23)NC(=O)[C@H](C)NC(=O)[C@@H](NC(=O)[C@@H](N)CC(=O)O)CSSC[C@@H](C(=O)N[C@H](C(=O)O)[C@@H](C)O)NC(=O)[C@H](Cc2c[nH]c3ccccc23)NC(=O)[C@H](C(C)C)NC(=O)[C@H](CC(C)C)NC(=O)[C@H](CCC(=O)O)NC(=O)CNC1=O [IBP] | > 50000 nM | > 50000 nM | > 50000 nM | > 50000 nM | > 50000 nM | > 50000 nM | > 50000 nM | > 50000 nM | > 50000 nM | > 50000 nM | IC50 [11]: > 50000 nM; IC50 [12]: > 50000 nM; IC50 [13]: > 50000 nM; IC50 [14]: > 50000 nM; IC50 [15]: > 50000 nM; IC50 [16]: > 50000 nM; IC50 [17]: > 50000 nM; IC50 [18]: > 50000 nM; IC50 [19]: > 50000 nM; IC50 [20]: > 50000 nM; IC50 [21]: > 50000 nM; IC50 [22]: > 50000 nM
3 | DCAWHLGELVWCTSLDQINVTFLDLEYEMKKLEEAIKKLEESYIDLKEL (disulfide 2-12) [IBP-EK1] | 301 nM | 399 nM | 527 nM | 221 nM | 564 nM | 257 nM | 195 nM | 330 nM | 342 nM | 204 nM | –
